Data from patent publication US7012061B1 (New York University, priority 1998, dated 2006).
“And” between values parts separate entries of the source, which are not always exact repeats. Identical values can stand only once. Like-named read-outs stand apart in the source and are kept apart here.

B1: IL-12: Murine rIL-12 provided by Genetics Institute (protein, UniProt P43431 23-215; P43432 23-335, looked up)
Interleukin-12 subunit alpha: RVIPVSGPARCLSQSRNLLKTTDDMVKTAREKLKHYSCTAEDIDHEDITRDQTSTLKTCLPLELHKNESCLATRETSSTTRGSCLPPQKTSLMMTLCLGSIYEDLKMYQTEFQAINAALQNHNHQQIILDKGMLVAIDELMQSLNHNGETLRQKPPVGEADPYRVKMKLCILLHAFSTRVVTINRVMGYLSSA
Interleukin-12 subunit beta: MWELEKDVYVVEVDWTPDAPGETVNLTCDTPEEDDITWTSDQRHGVIGSGKTLTITVKEFLDAGQYTCHKGGETLSHSHLLLHKKENGIWSTEILKNFKNKTFLKCEAPNYSGRFTCSWLVQRNMDLKFNIKSSSSSPDSRAVTCGMASLSAEKVTLDQRDYEKYSVSCQEDVTCPTAEETLPIELALEARQQNKYENYSTSFFIRDIIKPDPPKNLQMKPLKNSQVEVSWEYPDSWSTPHSYFSLKFFVRIQRKKEKMKETEEGCNQKGAFLVEKTSTEVQCKGGNVCVQAQDRYYNSSCSKWACVPCRVRS
B2: IFN-γ: Recombinant mouse IFN-γ purchased from Genzyme (protein, UniProt P01580 23-155, looked up)
Interferon gamma: HGTVIESLESLNNYFNSSGIDVEEKSLFLDIWRNWQKDGDMKILQSQIISFYLRLFEVLKDNQAISNNISVIESHLITTFFSNSKAKKDAFMSIAKFEVNNPQVQRQAFNELIRVVHQLLPESSLRKRKRSRC

Columns and labels:
Influenza virus A/WSN/33 = format: cell-based
type I NOS = type I NOS (Homo sapiens, UniProt P29475); settings: Moore et al, 1993; cited from earlier work
VSV [1] = format: in vivo, mice
VSV [2] = format: cell-based, Vesicular stomatitis virus; settings: for VSV in supernatant: NB41A3, 8 h pi; for Effect on IFN-γ-induced inhibition of VSV replication: NB41A3 cells
HSV-1 = format: cell-based, Herpes Simplex virus-1
VSV [3] = format: cell-based, Vesicular stomatitis virus; settings: C6 Glia, moi = 1, 8 h pi
VSV [4] = format: cell-based, Vesicular stomatitis virus; settings: RAW, inhibitors, moi = 1, 8 h pi
Sindbis AR339 virus = format: cell-based
aortic endothelial cells = settings: Clark et al, 1988; cited from earlier work
[5] = parameters: species or system mice; settings: mouse, in vivo
MHC-II = tested on: MHC-II; parameters: species or system mice; key: − = no visual staining; + = minimal staining; ++ = moderate staining; +++ = strong staining; settings: mouse, in vivo
IFN-R = tested on: IFN-R; parameters: species or system mice; key: − = no visual staining; + = minimal staining; ++ = moderate staining; +++ = strong staining; settings: mouse, in vivo
MHC-I = tested on: MHC-I; parameters: species or system mice; key: − = no visual staining; + = minimal staining; ++ = moderate staining; +++ = strong staining; settings: mouse, in vivo
VSV mRNA (N gene) = format: cell-based, Vesicular stomatitis virus
blood brain barrier [6] = settings: mouse, in vivo
IL-12 = tested on: IL-12; parameters: species or system mice; key: − = no visual staining; + = minimal staining; ++ = moderate staining; +++ = strong staining; settings: mouse, in vivo
blood brain barrier [7] = tested on: blood brain barrier; parameters: species or system mice; settings: mouse, in vivo
VSV protein = format: cell-based, Vesicular stomatitis virus
VSV [8] = tested on: VSV; parameters: species or system mice; key: − = no visual staining; + = minimal staining; ++ = moderate staining; +++ = strong staining; settings: mouse, in vivo
VSV [9] = tested on: VSV; parameters: species or system mice; settings: mouse, in vivo, ip
[10] = tested on: NOS activity in NB41A3 neuroblastoma cells; test: NO2 release into culture medium (Griess reagent), NB41A3 cells; format: cell-based
Experimental: (§1) FIGS. 2A–2C show the kinetics of the IFN-γ augmented NOS activity in NB41A3 neuroblastoma, C6 rat glioma and RAW cells. Aliquots of supernatant were removed from triplicate wells of 2×10^5 NB41A3 (FIG. 2A), RAW (FIG. 2B) or C6 (FIG. 2C) cells, cultured with medium or with 5 ng IFN-γ for up to 72 hours. The medium was assayed for the presence of NO2 using the Griess reagent, and expressed as nM NO2 ±S.D. present.
(§2) The concentration of NO in culture supernatants was determined by assaying its stable end-product, NO2 (Bredt et al, 1989). Briefly, equal volumes of experimental sample and Griess reagent (1% sulfanilamidide, 0.1% N-1-naphthylethylene-diamine, 5H3PO4) (Sigma) were incubated at room temperature for ten minutes. The reaction produces a pink color, which was quantitated at 540 nm against standards in the same buffer, using an automated plate reader (Bio-Tek, Inc., model EL309). The data is expressed as mM.

[11] = tested on: NOS activity in C6 rat glioma cells; test: NO2 release into culture medium (Griess reagent), C6 cells; format: cell-based; settings: astrocytes (C6), co-culture with IFN-γ
Experimental: as §1, §2

[12] = tested on: NOS activity in RAW cells; test: NO2 release into culture medium (Griess reagent), RAW cells; format: cell-based, murine; settings: RAW macrophage line, incubation with 5 ng rIFNγ
Experimental: as §1, §2

[13] = 5 μg IFN-γ for 72 hours prior to infection, inhibitors 400 mM, 8 hour infection, moi = 1
[14] = Media (no IFN-γ), inhibitors 400 mM, 8 hour infection, moi = 1
[15] = IFN-γ 5 ng for 72 hours, inhibitors 400 mM, moi = 1
[16] = Medium, inhibitors 400 mM, moi = 1
[17] = NMDA 500 mM for two minutes, inhibitors 400 mM, moi = 1
[18] = IFN-γ 5 ng for 72 hours, inhibitors 400 mM

Chain of type I NOS (P29475 whole entry): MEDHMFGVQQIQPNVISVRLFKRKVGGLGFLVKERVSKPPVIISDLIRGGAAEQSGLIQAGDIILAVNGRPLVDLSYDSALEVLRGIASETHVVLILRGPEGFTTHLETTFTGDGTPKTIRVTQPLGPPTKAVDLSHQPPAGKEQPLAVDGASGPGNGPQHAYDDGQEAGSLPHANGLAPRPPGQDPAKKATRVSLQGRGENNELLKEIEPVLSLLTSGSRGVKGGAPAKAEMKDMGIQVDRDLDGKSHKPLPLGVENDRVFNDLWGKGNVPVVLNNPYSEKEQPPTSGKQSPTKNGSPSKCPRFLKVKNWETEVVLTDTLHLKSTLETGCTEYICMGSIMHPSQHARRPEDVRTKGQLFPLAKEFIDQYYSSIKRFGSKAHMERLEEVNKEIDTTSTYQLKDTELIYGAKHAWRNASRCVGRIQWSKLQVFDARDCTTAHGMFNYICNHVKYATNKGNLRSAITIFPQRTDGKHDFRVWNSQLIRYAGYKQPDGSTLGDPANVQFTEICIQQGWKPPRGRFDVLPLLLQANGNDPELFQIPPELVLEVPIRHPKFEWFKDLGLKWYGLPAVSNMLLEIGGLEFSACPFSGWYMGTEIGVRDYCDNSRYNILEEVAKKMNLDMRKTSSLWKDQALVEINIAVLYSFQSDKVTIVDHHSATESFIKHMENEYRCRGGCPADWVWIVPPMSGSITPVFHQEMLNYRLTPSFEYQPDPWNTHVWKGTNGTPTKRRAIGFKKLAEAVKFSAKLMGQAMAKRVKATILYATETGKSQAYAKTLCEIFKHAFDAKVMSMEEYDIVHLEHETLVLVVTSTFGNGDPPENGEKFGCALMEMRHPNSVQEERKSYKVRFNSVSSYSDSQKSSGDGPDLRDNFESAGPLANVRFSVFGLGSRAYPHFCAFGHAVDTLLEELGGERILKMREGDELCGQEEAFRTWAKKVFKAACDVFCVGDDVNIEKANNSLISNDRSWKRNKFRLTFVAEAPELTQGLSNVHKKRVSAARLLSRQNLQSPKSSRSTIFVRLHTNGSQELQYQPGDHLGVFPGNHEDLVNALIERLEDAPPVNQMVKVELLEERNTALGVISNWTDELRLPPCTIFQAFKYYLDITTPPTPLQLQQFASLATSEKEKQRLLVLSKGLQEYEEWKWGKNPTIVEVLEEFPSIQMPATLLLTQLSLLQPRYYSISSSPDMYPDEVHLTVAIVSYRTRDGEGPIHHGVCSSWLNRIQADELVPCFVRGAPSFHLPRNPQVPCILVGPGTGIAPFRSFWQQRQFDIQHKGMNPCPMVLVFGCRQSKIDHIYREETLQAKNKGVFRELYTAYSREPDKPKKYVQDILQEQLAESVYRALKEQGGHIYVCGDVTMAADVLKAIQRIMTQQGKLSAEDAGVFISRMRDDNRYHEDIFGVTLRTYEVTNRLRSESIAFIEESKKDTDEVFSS

Row | Molecule | Influenza infectious virus in supernatant (Influenza virus A/WSN/33; [13]) | Influenza infectious virus in supernatant (Influenza virus A/WSN/33; [14]) | VSV infectious virus in supernatant (VSV [2]; [13]) | VSV infectious virus in supernatant (VSV [2]; [14]) | VSV in supernatant (VSV [2]; [15]) | VSV in supernatant (VSV [2]; [16]) | VSV in supernatant (VSV [2]; [17]) | HSV-1 infectious virus in supernatant (HSV-1) | VSV in supernatant (VSV [3]; [18]) | VSV in supernatant (VSV [3]; Medium, inhibitors 400 mM) | VSV in supernatant (VSV [3]) | VSV in supernatant (VSV [4]; IFN-γ 5 ng for 72 hours) | VSV in supernatant (VSV [4]; Medium) | Sindbis infectious virus in supernatant (Sindbis AR339 virus) | other results
1 | O=[N+]([O-])c1cccc2cn[nH]c12 [7-NI, 7-nitroindazole] | 3.897 ± .089 Log10 PFU | 5.560 ± .489 Log10 PFU | 5.752 ± .331 Log10 PFU | 5.985 ± .428 Log10 PFU | 5.76 ± .10 log10 PFU | 5.76 ± .18 log10 PFU | 5.57 ± .15 log10 PFU | 5.159 ± .194 Log10 PFU and 5.170 ± .264 Log10 PFU | 4.54 ± .14 log10 PFU | 5.83 ± .14 log10 PFU | 4.59 ± .52 log10 PFU | 4.84 ± .15 log10 PFU | 5.87 ± .08 log10 PFU | 4.935 ± .056 Log10 PFU and 3.897 ± .089 Log10 PFU | NOS isoform selectivity (type I NOS): selective inhibitor of type I, but not types II or III NOS; Effect on IL-12-mediated enhanced clearance of VSV (VSV [1]; BALB/c male mice, 50 mg/kg with 200 ng IL-12, four days post infection): abrogated; Geometric mean titer (GMT) of virus in brain homogenates compared to indazole-treated mice (VSV [1]; BALB/c male mice, 50 mg/kg, four days post infection): ten-fold greater GMT; Effect on IFN-γ-induced inhibition of VSV replication (VSV [2]): abrogation; Effect on IFN-γ-induced inhibition of HSV-1 replication (HSV-1): abrogation
2 | NC1=NN(c2cccc(C(F)(F)F)c2)CC1 [BW 755c] |  |  |  |  |  |  |  |  |  |  |  |  |  |  | TNF-induced injury to aortic endothelial cells (aortic endothelial cells): reduced
3 | c1ccc2[nH]ncc2c1 [Indazole, indazole] | 3.546 ± .212 Log10 PFU | 5.268 ± .350 Log10 PFU | 3.678 ± .174 Log10 PFU | 5.460 ± .408 Log10 PFU | 4.23 ± .29 log10 PFU | 5.58 ± .27 log10 PFU | 4.39 ± .36 log10 PFU | 5.140 ± .204 Log10 PFU and 3.175 ± .369 Log10 PFU | 4.48 ± .42 log10 PFU | 5.63 ± .19 log10 PFU | 4.48 ± .17 log10 PFU | 4.49 ± .48 log10 PFU | 5.45 ± .21 log10 PFU | 5.053 ± .217 Log10 PFU and 3.752 ± .046 Log10 PFU | 
4 | CN[C@@H](CCCNC(=N)N)C(=O)O [L-NMA, L-N-Methyl Arginine] | 3.767 ± .208 Log10 PFU | 5.810 ± .131 Log10 PFU | 5.761 ± .151 Log10 PFU | 5.948 ± .089 Log10 PFU | 5.77 ± .21 log10 PFU | 5.76 ± .25 log10 PFU | 5.59 ± .27 log10 PFU | 5.359 ± .225 Log10 PFU and 5.227 ± .208 Log10 PFU | 5.59 ± .26 log10 PFU | 5.85 ± .08 log10 PFU | 5.38 ± .37 log10 PFU | 5.71 ± .09 log10 PFU | 5.83 ± .13 log10 PFU | 5.033 ± .238 Log10 PFU and 3.796 ± .084 Log10 PFU | Effect on IFN-γ-induced inhibition of VSV replication (VSV [2]): abrogation; Effect on IFN-γ-induced inhibition of HSV-1 replication (HSV-1): abrogation
5 | CN[C@H](CC(=O)O)C(=O)O [NMDA] |  |  |  |  |  |  | 3.71 ± .20 log10 PFU |  |  |  | 5.54 ± .24 log10 PFU |  |  |  | 
6 | B1 |  |  |  |  |  |  |  |  |  |  |  |  |  |  | Time at which weight exceeded initial measurements [5]: ≤ 12 days after infection; Time at which weight exceeded initial measures [5]: ≤ 12 days after infection; Weight loss recovery from VSV infection [5]: rapidly recover from the weight loss; MHC-II relative intensity of staining (MHC-II): ++ and + and +++ and −; IFN-R relative intensity of staining (IFN-R): ++ and − and +; Decrease of VSV titer in brain homogenates (VSV [1]; mouse, in vivo): about 100 fold; MHC-I relative intensity of staining (MHC-I): ++ and + and +++ and −; Difference in relative amounts of viral mRNA between treated and untreated samples (VSV mRNA (N gene)): approximately 20%; Integrity of the BBB (TEM, intercellular junction gaps) (blood brain barrier [6]): not enough to disrupt the integrity of the BBB; IL-12 relative intensity of staining (IL-12): + and − and ++; Breakage of the BBB (Evans blue) (blood brain barrier [7]): did not show breakage of the BBB; Difference in relative amounts of viral protein between treated and untreated samples (VSV protein): approximately 80%; VSV relative intensity of staining (VSV [8]): +++ and ++ and + and −; Number of survivors versus control medium (VSV [9]): greater; Survival and weight recovery from VSV infection (VSV [9]): not able to rescue; Survival rate from VSV infection versus control mice (VSV [9]): twice the survival rate
7 | B2 |  |  |  |  |  |  |  | 3.467 ± .408 Log10 PFU |  |  |  |  |  | 3.318 ± .373 Log10 PFU | Influenza infectious virus in supernatant (Influenza virus A/WSN/33): 3.810 ± .130 Log10 PFU; Replication of influenza virus A/WSN/33 in NB41A3 cells (Influenza virus A/WSN/33): significantly inhibited; NO production by NB41A3 cells ([10]; IFN-γ treatment): significantly increased; Time to substantial levels of NO2 production ([10]; Neuroblastoma cells, co-culture with IFN-γ): 72 h; Time to substantial levels of NO2 production [11]: 72 h; VSV infectious virus in supernatant (VSV [2]): 3.752 ± .034 Log10 PFU; VSV replication in NB41A3 cells (VSV [2]): significantly inhibited; Time to plateau levels of NO2 production [12]: ≤ 24 h; HSV-1 replication in NB41A3 cells (HSV-1): significantly inhibited; Replication of Sindbis virus in NB41A3 cells (Sindbis AR339 virus): significantly inhibited
